Measurements reported in ChEMBL document CHEMBL5325496, “Discovery, SAR Study of GST Inhibitors from a Novel Quinazolin-4(1H)-one Focused DNA-Encoded Library” (J Med Chem, 2023).

Columns and labels:
[1] = organism: Homo sapiens; experiment: Inhibition of glutathione S-transferase (unknown origin) using CDNB as substrate at 50 uM by spectrophotometric analysis relative to control
[2] = biological target: T1, Glutathione-S-transferase (Schistosoma japonicum, UniProt Q26513); experiment: Inhibition of Schistosoma japonicum GST by spectrophotometric analysis
T1 sequence (Q26513 whole entry): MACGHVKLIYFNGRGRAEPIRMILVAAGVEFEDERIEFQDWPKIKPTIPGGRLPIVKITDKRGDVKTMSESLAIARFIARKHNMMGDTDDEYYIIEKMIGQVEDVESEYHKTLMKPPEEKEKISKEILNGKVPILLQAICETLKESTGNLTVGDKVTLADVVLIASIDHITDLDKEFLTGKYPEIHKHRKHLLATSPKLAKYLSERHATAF

[3] = biological target: T2, Glutathione S-transferase Mu 2 (Homo sapiens, UniProt P28161); experiment: Inhibition of human GSTM2 by spectrophotometric analysis
T2 sequence (P28161 whole entry): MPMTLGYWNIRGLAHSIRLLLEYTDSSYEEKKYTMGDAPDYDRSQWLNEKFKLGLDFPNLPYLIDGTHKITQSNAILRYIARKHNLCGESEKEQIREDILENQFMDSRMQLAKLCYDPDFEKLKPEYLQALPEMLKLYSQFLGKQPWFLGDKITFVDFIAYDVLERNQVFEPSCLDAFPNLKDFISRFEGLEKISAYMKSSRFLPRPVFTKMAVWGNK

Structure (SMILES) | inhibition [1] [%] | IC50 [2] [µM] | IC50 [3] [µM]
O=c1c2cc(Br)ccc2nc(-c2ccc(Cl)s2)n1Cc1ccc(Cl)cc1 | 20.2 |  | 
O=c1c2cc(-c3ccccc3-c3nn[nH]n3)ccc2nc(-c2ccc(Cl)s2)n1Cc1ccccc1 | 83.6 | 8.86 | 3.38
O=C(O)CCn1c(-c2ccc(Cl)s2)nc2ccc(-c3ccccc3-c3nn[nH]n3)cc2c1=O | 87.3 | 9.47 | 2.4
O=C(O)CCCn1c(-c2ccc(Cl)s2)nc2ccc(-c3ccccc3-c3nn[nH]n3)cc2c1=O | 76.6 |  | 
O=c1c2cc(-c3ccccc3-c3nn[nH]n3)ccc2nc(-c2cccs2)n1Cc1ccc(Cl)cc1 | 89 | 4.26 | 6.15
COC(=O)c1ccccc1-c1ccc2nc(-c3ccc(Cl)s3)n(Cc3ccc(Cl)cc3)c(=O)c2c1 | 24.8 |  | 
O=c1c2cc(-c3ccccc3-c3nn[nH]n3)ccc2nc(-c2ccc(Cl)s2)n1CCc1ccc(Cl)cc1 | 90.8 |  | 
O=C(O)c1ccccc1-c1ccc2nc(-c3ccc(Cl)s3)n(Cc3ccc(Cl)cc3)c(=O)c2c1 | 78.7 | 16.6 | > 20
Cn1nccc1-c1nc2ccc(-c3ccccc3-c3nn[nH]n3)cc2c(=O)n1Cc1ccc(Cl)cc1 | 65.3 |  | 
O=C(O)c1cccc(-c2ccc3nc(-c4ccc(Cl)s4)n(Cc4ccc(Cl)cc4)c(=O)c3c2)c1 | 55.6 |  | 
O=c1c2cc(-c3ccccc3-c3nn[nH]n3)ccc2nc(-c2ccc(Cl)s2)n1Cc1ccc(Cl)cc1 | 92.5 | 5.46 | 4.03
O=c1c2cc(-c3ccccc3-c3nn[nH]n3)ccc2nc(-c2cccc(Cl)c2)n1Cc1ccc(Cl)cc1 | 45.8 |  | 
CS(=O)(=O)c1ccccc1-c1ccc2nc(-c3ccc(Cl)s3)n(Cc3ccc(Cl)cc3)c(=O)c2c1 | 12.9 |  | 
CCOC(=O)CCn1c(-c2ccc(Cl)s2)nc2ccc(-c3ccccc3-c3nn[nH]n3)cc2c1=O | 87.5 |  | 
C=C(CC)C(=O)c1ccc(OCC(=O)O)c(Cl)c1Cl [ETHACRYNIC ACID] |  | 1.84 | > 20
COc1cc(/C=C/C(=O)CC(=O)/C=C/c2ccc(O)c(OC)c2)ccc1O [CURCUMIN] |  |  | 1.81
O=C(O)C(Cc1ccc(Cl)cc1)Cn1c(-c2ccc(Cl)s2)nc2ccc(-c3ccccc3-c3nn[nH]n3)cc2c1=O (stereo not drawn) | 98.8 | 1.55 | 2.02
NC(=O)c1cccc(-c2ccc3nc(-c4ccc(Cl)s4)n(Cc4ccc(Cl)cc4)c(=O)c3c2)c1 | 24.6 |  | 
O=C(O)c1cc(-c2ccc3nc(-c4ccc(Cl)s4)n(Cc4ccc(Cl)cc4)c(=O)c3c2)ccc1F | 54.4 |  | 
O=c1c2cc(-c3ccccc3-c3nn[nH]n3)ccc2ncn1Cc1ccc(Cl)cc1 | 20.3 |  | 
